Experimental findings from ChEMBL document CHEMBL2331245, “Aza-BODIPY: improved synthesis and interaction with soluble Aβ1-42 oligomers” (Bioorg Med Chem Lett, 2013) are described below.

Calls of active or inactive are those of the source. No cut-off for these calls is given here.

The target in series [1] is T1, Albumin (Bos taurus, UniProt P02769). The experiment in a line: Binding affinity to beta-sheet rich bovine serum albumin at 2 uM by circular dichroism spectroscopic analysis. The following applies: cattle, TDE = time-dependent effect. (CD spectra are sensitive to the conformation of chiral molecules.)
T1 sequence (P02769 whole entry): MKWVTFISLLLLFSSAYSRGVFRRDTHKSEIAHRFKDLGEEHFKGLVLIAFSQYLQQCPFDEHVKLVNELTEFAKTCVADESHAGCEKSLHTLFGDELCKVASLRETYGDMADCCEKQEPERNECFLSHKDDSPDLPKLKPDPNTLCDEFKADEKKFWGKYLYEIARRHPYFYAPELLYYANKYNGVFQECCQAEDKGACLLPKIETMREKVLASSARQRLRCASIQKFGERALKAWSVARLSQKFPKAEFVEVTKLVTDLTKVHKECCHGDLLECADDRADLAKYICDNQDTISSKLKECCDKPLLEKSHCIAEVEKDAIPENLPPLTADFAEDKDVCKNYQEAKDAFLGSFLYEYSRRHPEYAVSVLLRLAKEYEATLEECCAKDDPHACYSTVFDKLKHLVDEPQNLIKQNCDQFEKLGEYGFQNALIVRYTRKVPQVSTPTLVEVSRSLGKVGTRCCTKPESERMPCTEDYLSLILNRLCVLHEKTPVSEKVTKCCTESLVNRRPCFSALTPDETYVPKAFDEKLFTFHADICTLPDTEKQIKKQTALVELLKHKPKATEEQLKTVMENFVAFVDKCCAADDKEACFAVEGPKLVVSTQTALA
Series [2] deals with T1, Albumin. The experiment in a line: Binding affinity to bovine serum albumin at 2 uM by circular dichroism spectroscopic analysis. As to conditions: cattle, TDE = time-dependent effect.
Series [3] concerns the target Amyloid-beta precursor protein (Homo sapiens) (UniProt P05067). The experiment in a line: Binding affinity to ordered beta sheet of amyloid beta (1 to 42) (unknown origin) assessed as fluorescence enhancement at 0.5 uM by fluorescence spectra analysis relative to control.
The target is the same in series [4]. The experiment in a line: Binding affinity to unordered beta sheet of amyloid beta (1 to 42) (unknown origin) assessed as fluorescence enhancement at 0.5 uM by fluorescence spectra analysis relative to control.
For series [5] the target is unchanged. The experiment in a line: Binding affinity to ordered beta sheet of amyloid beta (1 to 42) (unknown origin) by circular dichroism spectroscopic analysis.
Series [6] has the same target. The experiment in a line: Binding affinity to unordered beta sheet of amyloid beta (1 to 42) (unknown origin) by circular dichroism spectroscopic analysis.
The target in series [7] is T1, Albumin. The experiment in a line: Binding affinity to bovine serum albumin at 2 uM by circular dichroism spectroscopic analysis relative to control relative to control. As to conditions: cattle.
Series [8] addresses T1, Albumin. The experiment in a line: Binding affinity to bovine serum albumin at 2 uM by circular dichroism spectroscopic analysis relative to control. As to conditions: cattle.

Chain of Amyloid-beta precursor protein (Homo sapiens) (P05067 whole entry): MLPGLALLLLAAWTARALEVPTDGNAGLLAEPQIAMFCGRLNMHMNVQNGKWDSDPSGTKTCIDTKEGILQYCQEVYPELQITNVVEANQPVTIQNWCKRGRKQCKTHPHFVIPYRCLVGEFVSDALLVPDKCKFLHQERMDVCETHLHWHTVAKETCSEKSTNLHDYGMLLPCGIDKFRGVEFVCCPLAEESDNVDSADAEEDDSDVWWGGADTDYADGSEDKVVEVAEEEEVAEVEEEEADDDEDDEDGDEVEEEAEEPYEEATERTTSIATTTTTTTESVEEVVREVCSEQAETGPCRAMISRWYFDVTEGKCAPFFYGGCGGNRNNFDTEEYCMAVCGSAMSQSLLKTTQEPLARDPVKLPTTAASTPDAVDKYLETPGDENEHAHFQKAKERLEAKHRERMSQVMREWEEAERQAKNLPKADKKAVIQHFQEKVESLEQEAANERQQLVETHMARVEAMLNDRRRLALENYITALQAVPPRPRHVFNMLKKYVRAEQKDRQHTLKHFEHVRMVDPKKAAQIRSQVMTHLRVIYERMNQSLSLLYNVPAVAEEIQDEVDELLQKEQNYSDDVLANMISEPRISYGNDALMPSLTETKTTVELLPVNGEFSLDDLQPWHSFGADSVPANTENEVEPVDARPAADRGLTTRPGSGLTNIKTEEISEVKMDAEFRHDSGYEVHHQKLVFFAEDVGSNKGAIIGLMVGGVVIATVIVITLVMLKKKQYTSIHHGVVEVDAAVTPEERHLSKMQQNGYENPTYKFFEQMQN

`F[B-]1(F)n2c(-c3ccccc3)cc(-c3ccccc3)c2N=C2C(c3ccccc3)=CC(c3ccccc3)=[N+]21`: the Activity entry at Albumin [1] and on Albumin [2] was “tde” throughout. Also, the fold change (FC) was 16 in series [3], 6 in series [4], 340 at Albumin [7] and 57 at Albumin [8]. The outcome in series [5] and in series [6] was Active.
